In US20160279204A1, “PEPTIDES AND PHARMACEUTICAL COMPOSITIONS FOR USE IN THE TREATMENT BY NASAL ADMINISTRATION OF PATIENTS SUFFERING FROM ANXIETY AND SLEEP DISORDERS” (MAX-PLANCK-GESELLSCHAFT ZUR FÖRDERUNG DER WISSENSCHAFT E.V., priority 2011, published 2016):
“Also recorded” adds a separate entry of the source.

Experiments:
[1] = test system: CA3-CA1 synapses of the VH; experiment: Field potential recordings, bath application of NPS to VH slices; design: species or system mouse; settings: bath application of NPS 1 μM, VH slices from C57BL/6N mice
Experimental: (§1) Brains were dissected and placed in ice-cold carbogenated ACSF. 350 μm horizontal slices containing the VH were prepared using a vibroslicer. Afterwards, the slices were incubated for 30 min at 34° C. and subsequently stored at room temperature. For experiments, slices were placed in a submerged recording chamber and continuously superfused with carbogenated ACSF at a flow rate of 3 mL/min. Square pulse electrical stimuli (50 μs pulse width) were delivered via a bipolar tungsten electrode (insulated to the tip, 50 μm pole diameter) that was positioned within the stratum radiatum of the CA1 region. All recordings were performed at room temperature, low-pass filtered at 1 kHz, and digitised at 5 kHz. Evoked field excitatory postsynaptic potentials (fEPSPs) were recorded using glass micro-electrodes (1 MΩ open-tip resistance), filled with ACSF and also positioned within the CA1 stratum radiatum. Stimulus intensities were adjusted in a manner to produce a fEPSP of ˜50% of that amplitude at which a population spike becomes clearly observable. Paired-pulse facilitation was measured at interstimulus intervals of 25, 50, 100, 200, and 400 ms and the paired-pulse ratio was calculated as fEPSP2 amplitude/fEPSP1 amplitude.

[2] = test system: GluR1, GluR2, Glt-1, synapsin; experiment: Immunoblotting of prefrontal cortex and hippocampus lysates after intranasal NPS; assay type: in vivo, mouse; settings: 24 hrs after intranasal NPS
Experimental: (§2) Behavioural tests (open field, dark-light test and elevated plus maze (EPM)) following intranasal NPS application were performed sequentially. Each test lasted for 5 min with an inter-test interval of 5 min, as described previously (Bunck et al., 2009; Krömer et al., 2005). The animals' behaviour during testing was videotaped and relevant parameters were analysed with the tracking software ANY-maze version 4.30 (Stoelting, Wood Dale, Ill., USA). Native NPS (1 μg/μL) or vehicle (Ringer solution) were administered intranasally to the alert mouse as described above (total volume: 14 μL). Mice were tested 30 min and 4 hrs after intranasal administration of first drop. Animals were sacrificed 24 hrs after treatment and prefrontal cortex and bilateral hippocampi were prepared immediately and shock-frozen in methylbutane.
For immunoblotting, proteins were extracted from aforementioned two brain regions (prefrontal cortex and bilateral hippocampi). Quantitative blot analysis was performed using ImageJ software (http://rsbweb.nih.gov/ij/; Rasband, W. S., ImageJ, U.S. National Institutes of Health). Primary antibodies used: Glt-1, Glu-R1, Glu-R2 (all 1:100; all from Santa Cruz Biotechnology, Santa Cruz, Calif., USA), synapsin (1:2000; Synaptic Systems, Goettingen, Germany) and GAPDH (1:2000, Santa Cruz Biotechnology, Santa Cruz, Calif., USA). Secondary antibodies used: donkey anti-goat IgG-HRP (1:10000; Santa Cruz Biotechnology, Santa Cruz, Calif., USA), goat anti-rabbit IgG-HRP (1:7500, Sigma-Aldrich, St. Louis, Mo., USA) and goat anti-mouse IgG-HRP (1:25000, Sigma-Aldrich, St. Louis, Mo., USA).

[3] = test system: CA3-CA1 synapses of the VH; experiment: Field potential recordings in VH slices after intranasal NPS; design: species or system mouse; settings: for paired-pulse facilitation: interstimulus intervals 25, 50, 100, 200 ms
Experimental: Mice were then allowed to rest for 2 h before slice preparation and electrophysiological recording.
as §1

Bl6 and HAB mice = experiment: Dark-light test after intranasal NPS; assay type: in vivo, mouse; settings: for time spent in the light chamber / total distance traveled: intranasal, 4 hrs
Experimental: as §2
After having ascertained that nasally administered NPS reaches its target cells, anxiolytic effects of NPS were established for this transnasal delivery method. For this purpose, nasally 6.36 nmol NPS per mouse was administered to two mouse strains, Bl6 and HAB (high anxiety behaviour) mice. HAB animals, a mouse strain inbred for pathologically high anxiety, were chosen together with Bl6 mice to allow differentiation between the temporary condition of state anxiety and the general condition of trait anxiety (Bunck et al., 2009; Kromer et al., 2005). To accurately characterise the anxiety-relieving properties of NPS in these two mouse strains, three standardised behavioural assays measuring anxiolytic effects at two different time points after intranasal NPS administration were performed. In each test, the effects of intranasal NPS versus vehicle treatment on both anxiety- and locomotion-related indices were examined.

neuropeptide S (SFRNGVGSGVKKTSFRRAKQ; Neuropeptide S; UniProt P0C0P7 70-89, looked up) [NPS, peptide agonist of neuropeptide S receptor (NPSR); native NPS, rat, from Bachem]
long-term potentiation (LTP) [1]: decreases | paired-pulse facilitation [1]: decreases | synapsin expression ([2]; Bl6 mice, hippocampus versus prefrontal cortex): significantly increased in the hippocampus only | GluR1, GluR2 and Glt-1 expression ([2]; Bl6 mice, hippocampus): remained unaffected | Glt-1 expression level ([2]; Bl6 mice, prefrontal cortex): significantly increased | GluR1 expression level ([2]; Bl6 mice, prefrontal cortex): significantly increased | GluR2 expression ([2]; Bl6 mice, prefrontal cortex): remained unchanged | protein expression changes in the hippocampus ([2]; HAB mice, hippocampus): no corresponding changes | Glt-1 levels ([2]; HAB mice, prefrontal cortex): remained unchanged | GluR1 expression ([2]; HAB mice, prefrontal cortex): not affected | GluR2 expression ([2]; HAB mice, prefrontal cortex): significantly increased | magnitude of LTP induced by high-frequency stimulation ([3]; C57BL/6N mice): weakened; also recorded: decreased the magnitude of LTP | input-output curve (fEPSP amplitudes) ([3]; C57BL/6N mice, approximately 3 h after treatment): shift of input-output curves towards bigger fEPSP amplitudes; also recorded: shift of the input-output curve towards bigger fEPSP amplitudes | paired-pulse facilitation ([3]; C57BL/6N mice): weakened; also recorded: reduced paired-pulse facilitation | input-output curve (fEPSP amplitudes) ([3]; HAB mice): increase; also recorded: shift of the input-output curve towards bigger fEPSP amplitudes | magnitude of LTP ([3]; HAB mice): reduction; also recorded: decreased the magnitude of LTP | paired-pulse facilitation ([3]; HAB mice): reduction; also recorded: reduced paired-pulse facilitation | behavioural differences versus vehicle in dark-light test (Bl6 and HAB mice; Bl6 and HAB mice, intranasal 6.36 nmol per mouse, 30 min): no behavioural differences | time spent in the light chamber (Bl6 and HAB mice; Bl6 mice): did not differ significantly | total distance traveled (Bl6 and HAB mice; Bl6 mice): did not differ significantly | time spent in the light chamber (Bl6 and HAB mice; HAB mice): significantly increased | total distance traveled (Bl6 and HAB mice; HAB mice): unaffected
